Activity calls are given as the source filed them. The rule behind the calls is not given here.
How the values were obtained:
[1] = target: Cyclin-dependent kinase 2/cyclin E1 (Homo sapiens, UniProt P24941); assay: biochemical
[2] = target: Cyclin-dependent kinase 5/CDK5 activator 1 (Homo sapiens, UniProt Q00535); assay: biochemical
HCT-116 [3] = assay: Induction of cell cycle arrest in CDK2 knocked out human HCT116 cells assessed as accumulation at G2/M phase at 0.5 to 3.9 after 24 hrs by propidium iodide-staining based flow cytometry; assay type: functional
[4] = target: Cyclin-dependent kinase 7 (Homo sapiens) (UniProt P50613); assay: Inhibition of CDK7 in human HCT116 cells assessed as induction of dephosphorylation of RNA polymerase 2 S2/S5 residues at 0.5 to 1 uM after 24 hrs by Western blot analysis; assay type: cell-based
[5] = target: Cyclin-dependent kinase 9 (Homo sapiens) (UniProt P50750); assay: Inhibition of CDK9 in human HCT116 cells assessed as induction of dephosphorylation of RNA polymerase 2 S2/S5 residues at 0.5 to 1 uM after 24 hrs by Western blot analysis; assay type: cell-based
[6] = target: T1, Cyclin-dependent kinase 5/CDK5 activator 1 (Homo sapiens) (UniProt Q00535+Q15078); assay: Inhibition of CDK5/p25 in human HCT116 cells assessed as induction of dephosphorylation of FAK at Ser732 residue at 0.5 to 1 uM after 24 hrs by Western blot analysis; assay type: cell-based
T1 sequence (Q00535 whole entry): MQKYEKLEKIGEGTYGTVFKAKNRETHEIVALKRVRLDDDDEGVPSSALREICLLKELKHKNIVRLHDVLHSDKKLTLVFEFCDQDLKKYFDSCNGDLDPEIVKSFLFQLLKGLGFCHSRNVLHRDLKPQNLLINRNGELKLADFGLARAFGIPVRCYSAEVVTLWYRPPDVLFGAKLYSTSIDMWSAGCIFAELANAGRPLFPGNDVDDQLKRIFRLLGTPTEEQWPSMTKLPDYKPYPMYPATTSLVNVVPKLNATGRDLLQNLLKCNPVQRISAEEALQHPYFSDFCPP
T1 sequence (Q15078 99-307 partner limits assumed): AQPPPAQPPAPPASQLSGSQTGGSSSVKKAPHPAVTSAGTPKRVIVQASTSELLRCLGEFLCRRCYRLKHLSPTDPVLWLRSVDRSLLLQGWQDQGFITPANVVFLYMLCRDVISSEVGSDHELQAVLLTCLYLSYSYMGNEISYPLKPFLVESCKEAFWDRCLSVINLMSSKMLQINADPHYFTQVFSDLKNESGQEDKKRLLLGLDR

[7] = target: Cyclin-dependent kinase 1/cyclin B1 (Homo sapiens, UniProt P06493); assay: biochemical
Sequence of Cyclin-dependent kinase 1/cyclin B1 (P06493 whole entry): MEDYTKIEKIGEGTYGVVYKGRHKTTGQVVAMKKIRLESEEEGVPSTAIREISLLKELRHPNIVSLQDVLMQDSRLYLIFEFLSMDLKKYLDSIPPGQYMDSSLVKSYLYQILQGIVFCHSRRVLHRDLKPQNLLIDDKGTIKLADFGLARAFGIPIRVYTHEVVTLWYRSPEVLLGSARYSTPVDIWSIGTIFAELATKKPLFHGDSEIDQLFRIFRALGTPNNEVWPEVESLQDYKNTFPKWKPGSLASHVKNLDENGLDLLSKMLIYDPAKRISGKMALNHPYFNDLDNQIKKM
Sequence of Cyclin-dependent kinase 1/cyclin B1 (P14635 whole entry, further chain): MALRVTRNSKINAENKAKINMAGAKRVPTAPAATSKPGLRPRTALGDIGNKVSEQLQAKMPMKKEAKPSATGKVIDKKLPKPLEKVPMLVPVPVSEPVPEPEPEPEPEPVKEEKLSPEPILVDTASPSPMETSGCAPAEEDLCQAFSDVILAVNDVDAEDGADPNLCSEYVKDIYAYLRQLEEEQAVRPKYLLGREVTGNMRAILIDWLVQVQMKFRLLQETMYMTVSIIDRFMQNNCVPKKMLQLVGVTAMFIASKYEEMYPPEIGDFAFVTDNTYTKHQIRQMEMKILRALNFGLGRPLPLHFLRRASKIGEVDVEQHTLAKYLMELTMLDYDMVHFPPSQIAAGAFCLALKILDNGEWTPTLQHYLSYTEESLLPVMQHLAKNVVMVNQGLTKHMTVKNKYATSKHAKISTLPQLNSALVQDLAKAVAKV

[8] = target: Cyclin-dependent kinase 4/cyclin D1 (Homo sapiens, UniProt P11802); assay: biochemical
Sequence of Cyclin-dependent kinase 4/cyclin D1 (P11802 whole entry): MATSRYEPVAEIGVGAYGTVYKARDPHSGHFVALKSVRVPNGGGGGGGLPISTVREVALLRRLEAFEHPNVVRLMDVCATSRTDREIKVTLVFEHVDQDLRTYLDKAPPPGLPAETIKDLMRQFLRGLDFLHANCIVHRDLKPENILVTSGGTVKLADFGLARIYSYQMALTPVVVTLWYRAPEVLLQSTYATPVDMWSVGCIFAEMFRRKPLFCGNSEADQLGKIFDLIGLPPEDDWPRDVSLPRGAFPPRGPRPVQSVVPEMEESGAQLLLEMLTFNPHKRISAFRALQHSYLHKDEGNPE
Sequence of Cyclin-dependent kinase 4/cyclin D1 (P24385 whole entry, further chain): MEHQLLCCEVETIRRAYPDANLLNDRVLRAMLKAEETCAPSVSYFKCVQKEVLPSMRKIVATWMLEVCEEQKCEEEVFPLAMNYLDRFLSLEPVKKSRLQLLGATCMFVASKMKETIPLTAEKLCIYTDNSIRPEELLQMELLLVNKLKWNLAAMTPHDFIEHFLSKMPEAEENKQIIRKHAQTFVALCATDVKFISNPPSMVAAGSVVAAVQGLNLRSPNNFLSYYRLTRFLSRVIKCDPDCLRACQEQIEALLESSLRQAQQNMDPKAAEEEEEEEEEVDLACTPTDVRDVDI

CDK7/Cyclin H/MNAT1 = CDK7/Cyclin H/MNAT1 (Homo sapiens, UniProt P50613); assay: biochemical
Sequence of CDK7/Cyclin H/MNAT1 (P51946 whole entry): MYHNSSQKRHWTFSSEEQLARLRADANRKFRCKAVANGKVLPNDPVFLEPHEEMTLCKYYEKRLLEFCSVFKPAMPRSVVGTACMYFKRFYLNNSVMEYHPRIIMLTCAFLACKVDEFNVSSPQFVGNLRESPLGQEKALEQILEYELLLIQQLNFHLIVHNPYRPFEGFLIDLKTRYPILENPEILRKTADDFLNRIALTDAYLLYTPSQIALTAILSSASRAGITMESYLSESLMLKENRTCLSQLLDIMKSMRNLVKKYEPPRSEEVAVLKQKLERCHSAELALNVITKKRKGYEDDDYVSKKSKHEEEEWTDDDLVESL
Sequence of CDK7/Cyclin H/MNAT1 (P50613 whole entry): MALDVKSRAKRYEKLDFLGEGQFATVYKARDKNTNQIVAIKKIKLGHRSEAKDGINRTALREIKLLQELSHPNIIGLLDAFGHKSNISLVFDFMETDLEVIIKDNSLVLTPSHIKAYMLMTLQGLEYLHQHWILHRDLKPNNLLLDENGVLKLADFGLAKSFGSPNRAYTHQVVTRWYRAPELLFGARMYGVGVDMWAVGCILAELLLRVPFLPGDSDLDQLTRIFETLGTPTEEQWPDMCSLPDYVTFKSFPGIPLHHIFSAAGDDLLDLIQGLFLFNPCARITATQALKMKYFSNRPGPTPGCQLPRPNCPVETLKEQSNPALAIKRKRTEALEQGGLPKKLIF
Sequence of CDK7/Cyclin H/MNAT1 (P51948 whole entry, further chain): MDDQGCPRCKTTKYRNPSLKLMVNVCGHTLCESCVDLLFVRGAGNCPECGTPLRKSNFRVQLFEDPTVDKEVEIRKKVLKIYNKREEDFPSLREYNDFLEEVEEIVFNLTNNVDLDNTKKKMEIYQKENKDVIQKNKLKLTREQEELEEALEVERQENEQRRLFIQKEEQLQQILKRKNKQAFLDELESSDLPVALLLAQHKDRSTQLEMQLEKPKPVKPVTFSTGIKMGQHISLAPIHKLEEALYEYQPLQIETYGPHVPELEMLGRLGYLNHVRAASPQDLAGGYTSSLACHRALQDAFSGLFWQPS

CDK2/Cyclin A2 = CDK2/Cyclin A2 (Homo sapiens, UniProt P24941)
HCT-116 [9] = assay: Induction of cell cycle arrest in human HCT116 cells assessed as accumulation at G2/M phase at 0.07 to 0.8 uM after 24 hrs by propidium iodide-staining based flow cytometry relative to control; assay type: functional
HCT-116 [10] = assay: Induction of cell cycle arrest in human HCT116 cells assessed as accumulation at G2/M phase at 0.03 to 0.8 uM after 24 hrs by propidium iodide-staining based flow cytometry; assay type: functional
HCT-116 [11] = assay: Induction of cell cycle arrest in human HCT116 cells assessed as accumulation at G1 phase at 0.03 to 0.8 uM after 24 hrs by propidium iodide-staining based flow cytometry; assay type: functional
CDK9/cyclin T1 = CDK9/cyclin T1 (Homo sapiens, UniProt P50750); assay: biochemical
Sequence of CDK9/cyclin T1 (O60563 whole entry): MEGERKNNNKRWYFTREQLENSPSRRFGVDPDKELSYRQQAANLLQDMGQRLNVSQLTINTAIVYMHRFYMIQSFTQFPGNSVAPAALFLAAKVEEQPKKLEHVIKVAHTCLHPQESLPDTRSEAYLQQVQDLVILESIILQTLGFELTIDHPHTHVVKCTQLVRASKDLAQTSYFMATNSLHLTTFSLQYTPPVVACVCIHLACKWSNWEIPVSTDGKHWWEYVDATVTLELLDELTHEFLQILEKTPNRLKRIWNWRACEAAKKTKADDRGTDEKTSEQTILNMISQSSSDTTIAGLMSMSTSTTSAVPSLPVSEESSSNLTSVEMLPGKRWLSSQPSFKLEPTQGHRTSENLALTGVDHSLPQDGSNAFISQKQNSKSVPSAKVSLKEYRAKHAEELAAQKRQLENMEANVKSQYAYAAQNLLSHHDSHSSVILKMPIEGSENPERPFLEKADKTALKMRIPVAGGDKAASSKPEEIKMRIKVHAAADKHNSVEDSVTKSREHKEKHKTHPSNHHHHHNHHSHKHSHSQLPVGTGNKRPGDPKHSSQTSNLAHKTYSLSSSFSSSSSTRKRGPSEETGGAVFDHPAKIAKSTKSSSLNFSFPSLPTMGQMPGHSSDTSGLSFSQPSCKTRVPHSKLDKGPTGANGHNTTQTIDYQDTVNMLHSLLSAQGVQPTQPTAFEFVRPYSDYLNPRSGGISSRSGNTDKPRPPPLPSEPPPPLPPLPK
Sequence of CDK9/cyclin T1 (P50750 whole entry): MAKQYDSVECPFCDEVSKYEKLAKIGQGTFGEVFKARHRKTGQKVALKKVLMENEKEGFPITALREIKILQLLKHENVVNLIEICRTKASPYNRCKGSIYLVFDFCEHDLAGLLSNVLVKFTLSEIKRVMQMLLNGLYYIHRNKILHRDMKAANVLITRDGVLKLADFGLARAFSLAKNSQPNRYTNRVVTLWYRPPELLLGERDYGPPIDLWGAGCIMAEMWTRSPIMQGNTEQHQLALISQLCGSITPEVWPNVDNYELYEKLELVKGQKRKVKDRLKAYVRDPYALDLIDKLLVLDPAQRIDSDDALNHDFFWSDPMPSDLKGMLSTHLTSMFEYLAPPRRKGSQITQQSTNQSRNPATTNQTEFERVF

[12] = target: T2, N-lysine methyltransferase KMT5A (Homo sapiens, UniProt Q9NQR1); assay: Inhibition of SETD8 (unknown origin)
T2 sequence (Q9NQR1 whole entry): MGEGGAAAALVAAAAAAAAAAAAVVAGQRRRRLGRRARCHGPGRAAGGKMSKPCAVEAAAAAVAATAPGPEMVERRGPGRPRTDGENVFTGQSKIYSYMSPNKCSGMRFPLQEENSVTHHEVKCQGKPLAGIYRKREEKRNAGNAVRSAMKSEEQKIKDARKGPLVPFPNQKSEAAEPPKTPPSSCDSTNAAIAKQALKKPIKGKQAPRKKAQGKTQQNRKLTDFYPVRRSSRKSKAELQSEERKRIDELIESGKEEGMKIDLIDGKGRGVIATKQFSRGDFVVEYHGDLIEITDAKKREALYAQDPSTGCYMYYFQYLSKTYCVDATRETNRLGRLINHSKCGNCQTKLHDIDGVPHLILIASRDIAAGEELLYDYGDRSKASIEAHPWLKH

HCT-116 [13] = assay: Induction of cell cycle arrest in human HCT116 cells assessed as accumulation at S phase at 2.6 to 29.6 uM after 24 hrs by propidium iodide-staining based flow cytometry; assay type: functional
[14] = target: T1, Cyclin-dependent kinase 5/CDK5 activator 1 (Homo sapiens); assay: Inhibition of CDK5/p25 in human HCT116 cells assessed as induction of dephosphorylation of FAK at Ser732 residue at 1 to 5 uM after 24 hrs by Western blot analysis; assay type: cell-based
HCT-116 [15] = assay: Induction of cell cycle arrest in CDK2 knocked out human HCT116 cells assessed as accumulation at G2/M phase at 0.8 to 5.9 after 24 hrs by propidium iodide-staining based flow cytometry; assay type: functional
HCT-116 [16] = assay: Induction of cell cycle arrest in human HCT116 cells assessed as accumulation at G2/M phase at 0.2 to 13.2 uM after 24 hrs by propidium iodide-staining based flow cytometry relative to control; assay type: functional
Aurora kinase B [17] = target: T3, Aurora kinase B (Homo sapiens, UniProt Q96GD4); assay: Inhibition of AURORA B in human HCT116 cells assessed as reduction in histone H3 phosphorylation at S10 residues after 24 hrs by Western blot analysis; assay type: cell-based
T3 sequence (Q96GD4 whole entry): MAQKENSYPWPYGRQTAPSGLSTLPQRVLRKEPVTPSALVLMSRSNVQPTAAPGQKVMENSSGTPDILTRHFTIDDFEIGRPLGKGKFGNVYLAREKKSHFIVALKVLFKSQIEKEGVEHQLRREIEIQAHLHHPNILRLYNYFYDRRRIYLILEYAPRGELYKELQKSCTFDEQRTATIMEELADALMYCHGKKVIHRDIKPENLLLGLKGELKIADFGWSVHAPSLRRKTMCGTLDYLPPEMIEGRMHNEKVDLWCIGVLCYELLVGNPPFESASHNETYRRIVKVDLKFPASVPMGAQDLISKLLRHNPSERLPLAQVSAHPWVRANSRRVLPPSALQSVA

HCT-116 [18] = assay: Induction of cell cycle arrest in human HCT116 cells assessed as accumulation at G2/M phase after 24 hrs by propidium iodide-staining based flow cytometry; assay type: functional
Aurora kinase A = target: T4, Aurora kinase A (Homo sapiens, UniProt O14965); assay: Inhibition of GST-tagged AURORA A (unknown origin) expressed in baculovirus infected Sf9 cells using MBP as substrate
T4 sequence (O14965 whole entry): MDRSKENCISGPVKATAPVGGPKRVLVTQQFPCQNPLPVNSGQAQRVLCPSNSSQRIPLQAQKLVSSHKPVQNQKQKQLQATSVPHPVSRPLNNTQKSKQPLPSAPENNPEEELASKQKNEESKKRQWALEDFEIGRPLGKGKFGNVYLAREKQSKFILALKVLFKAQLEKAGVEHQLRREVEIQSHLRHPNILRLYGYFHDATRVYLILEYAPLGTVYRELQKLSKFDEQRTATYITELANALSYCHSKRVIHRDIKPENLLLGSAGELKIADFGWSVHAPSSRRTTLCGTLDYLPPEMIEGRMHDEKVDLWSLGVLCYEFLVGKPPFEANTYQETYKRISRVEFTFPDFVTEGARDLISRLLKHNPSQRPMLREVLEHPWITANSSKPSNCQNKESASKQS

Homo sapiens [19] = organism: Homo sapiens; assay: Selectivity index, ratio of IC50 for inhibition of His-tagged CDK1/cyclin B1 (unknown origin) expressed in Baculovirus infected Sf9 cells to IC50 for inhibition of GST-tagged AURORA A (unknown origin) expressed in baculovirus infected Sf9 cells
HCT-116 [20] = assay: Induction of cell cycle arrest in human HCT116 cells assessed as accumulation at 8N stage at 1.25 to 5 uM after 24 hrs by propidium iodide-staining based flow cytometry; assay type: functional
Aurora kinase B [21] = target: T3, Aurora kinase B; assay: biochemical
Homo sapiens [22] = organism: Homo sapiens; assay: Selectivity index, ratio of IC50 for inhibition of His-tagged CDK1/cyclin B1 (unknown origin) expressed in Baculovirus infected Sf9 cells to IC50 for inhibition of GST-tagged AURORA B (unknown origin) expressed in baculovirus infected Sf9 cells
[23] = target: Cyclin-dependent kinase 1 (Homo sapiens) (UniProt P06493); assay: Inhibition of CDK1 (unknown origin) at 10 uM
[24] = target: Cyclin-dependent kinase 2 (Homo sapiens, UniProt P24941)
HCT-116 [25] = assay: Induction of cell cycle arrest in human HCT116 cells assessed as accumulation at G2/M phase at 5.9 to […] after 24 hrs by propidium iodide-staining based flow cytometry; assay type: functional

Sequence of Cyclin-dependent kinase 5/CDK5 activator 1 (Q00535 whole entry): as the sequence (Q00535 whole entry) above
Sequence of Cyclin-dependent kinase 5/CDK5 activator 1 (Q15078 whole entry, further chain): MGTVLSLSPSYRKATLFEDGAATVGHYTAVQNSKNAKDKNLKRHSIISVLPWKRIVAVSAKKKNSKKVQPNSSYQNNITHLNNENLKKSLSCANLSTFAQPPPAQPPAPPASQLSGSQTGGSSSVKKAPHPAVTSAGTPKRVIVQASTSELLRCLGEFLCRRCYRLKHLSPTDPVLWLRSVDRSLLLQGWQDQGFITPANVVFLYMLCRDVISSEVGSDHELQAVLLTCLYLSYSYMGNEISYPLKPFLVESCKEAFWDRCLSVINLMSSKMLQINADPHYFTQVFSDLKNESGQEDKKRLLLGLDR

| Structure (SMILES) | IC50 [1] | IC50 [2] | IC50 [7] | IC50 [8] | IC50 (CDK7/Cyclin H/MNAT1) | IC50 (CDK2/Cyclin A2) | IC50 (CDK9/cyclin T1) | also measured |
| --- | --- | --- | --- | --- | --- | --- | --- | --- |
| OCCCNc1cc(-c2ccnc(Nc3cccc(Cl)c3)n2)ccn1 | 3 nM | 10 nM | 26 nM | 216 nM | 200 nM | 4 nM | – | Activity (HCT-116 [3]): Active; inhibition [4]: inactive; inhibition [5]: inactive; inhibition [6]: Active; Activity (HCT-116 [9]): <=30% |
| CCN1CCN(Cc2ccc(Nc3ncc(F)c(-c4cc(F)c5nc(C)n(C(C)C)c5c4)n3)nc2)CC1 [ABEMACICLIB] | – | – | – | – | – | – | – | Activity (HCT-116 [10]): <=30%; Activity (HCT-116 [11]): Active |
| Cc1ccc(NC2=CC(=O)c3sc(C)nc3C2=O)cc1 | > 20000 nM | > 20000 nM | > 20000 nM | 9500 nM | > 20000 nM | > 20000 nM | > 20000 nM | IC50 [12]: 500 nM; Activity (HCT-116 [13]): 15% |
| CCCCOc1c(C(=O)c2c(F)cc(C)cc2F)c[nH]c2nncc1-2 | 6 nM | 258 nM | 14 nM | 222 nM | 1600 nM | 71 nM | 1800 nM | inhibition [14]: Active; Activity (HCT-116 [15]): Active; Activity (HCT-116 [16]): 30 - 60% |
| CCN(CC)C(=O)c1ccc(Nc2nc(OCC3CCCCC3)c3nc[nH]c3n2)cc1 | 1100 nM | 8800 nM | 5800 nM | 940 nM | 2300 nM | 407000 nM | 5100 nM | inhibition (Aurora kinase B [17]): Dose-dependent effect; Activity (HCT-116 [18]): >=60%; IC50 (Aurora kinase A): 67 nM; Ratio IC50 (Homo sapiens [19]): 6 to 10; Activity (HCT-116 [20]): Active; IC50 (Aurora kinase B [21]): 35 nM; Ratio IC50 (Homo sapiens [22]): 6 to 10; inhibition [23]: 44%; IC50 [24]: 400 nM |
| CC[C@H](CO)Nc1nc(Nc2cccc(-c3ccccn3)c2)c2ncn(C(C)C)c2n1 | 93 nM | 215 nM | 3700 nM | > 20000 nM | 822 nM | 290 nM | 8000 nM | Activity (HCT-116 [25]): <=30% |
